“Also recorded” adds a separate entry of the source. Counter-ions that a name gives are not always drawn. Like-named read-outs stand apart in the source and are kept apart here.
Legend:
[1] = tested on: bed bugs; assay: bed bug luring assay; type: in vivo; conditions: cottonball with 100 microliters solution, total 100 mg compound(s), 10 bed bugs, overnight
Description: Assays were conducted to measure the ability of compounds and compound combinations to attract bed bugs. A testing arena habitat comprising a small plastic container was placed inside of a larger, secondary container. The top half inch was removed from two bathroom sized solo cups and each cup was placed on opposite sides of the testing arena habitat, one inch away from the wall. Each outer part of the cup was textured using sandpaper, as bed bugs cannot climb smooth surfaces. A paper towel was used to line the floor of the testing arena habitat. The top, removed portion of one of the solo cups was placed mouth side down in the center of the arena. In one of the cups, a cottonball was placed and treated with 100 microliters of compound or compound combination solution [comprising a total of 100 mg of compound(s).] 10 bed bugs were placed within the center cut off cup top and the testing arena habitat was covered and placed within a dark, climate controlled room overnight. The next day, the number of bed bugs that crawled into the baited cup were recorded and the % attractancy was calculated as the percentage of bugs that crawled into the baited cup as compared to the total number of bed bugs. In the Table, “Att” refers to attractancy and “Cmpd” refers to compound.

[2] = tested on: Aedes aegypti; assay: landing assay; type: in vivo; conditions: mesh treated with 1% in acetone, FIG. 2; for number of landings: 5 minute time course
Description: Behavior assays were developed to aid in the evaluation of compounds and compositions of the present invention. These assays include the landing assay and the netsphere assay. These assays were utilized to determine the effectiveness of said compounds and compositions with regard to attracting or repelling mosquitoes of the species Aedes aegypti. Due to the highly conserved nature of the carbon dioxide receptor across the order Diptera, the results obtained for Aedes aegypti are likely to be intuitive with regard to other members of the mosquito family Culicidae as well as with regard to other dipteran family members.
The landing assay is an assay used to test for attraction toward human skin. A human gloved hand with an opening cutout protected by 2 layers of mesh was inserted into a 12×12×12 inch cage of female mosquitoes. The first layer of mesh was used to protect the human from chemical contact as well as mosquito contact. A second layer of mesh was treated with a chemical compound or composition that had been dissolved at a concentration of 1% in acetone and allowed to dry on said mesh for three minutes. This second layer of mesh was placed on top of the first mesh layer. The two mesh layers were separated by outer magnetic strips to hold the layers in place on the glove. This experimental design allows the test subjects, starved female mosquitoes, to be exposed to human skin odors as well as the compound or composition concurrently. The cage contained 30 female and 3 male mosquitoes. The landing of mosquitoes on the treated surface was videotaped over a 5 minute time course and the number of landings during that time period was recorded. Mesh treated with acetone alone was used as a negative control. This experiment was done in triplicate for each compound or composition tested. The results from one such experiment are pictured in FIG. 2.

[3] = tested on: cpA neurons; assay: extracellular single-sensillum electrophysiology: activation of cpA neuronal activity; conditions: for Class: Table 6, single compounds, increase over baseline cpA neuronal activity; for Comp B Class / Comp A Class: Table 9; for Comp B Class: component B tested individually; for Class B (activator class of the individual component): Table 15, single component alone, Mod Actv; for Comp A Class: component A tested individually
[4] = tested on: Aedes aegypti mosquitoes; assay: netsphere assay; type: in vivo; conditions: baited BG-Sentinel trap, overnight collection; FIG. 3
Description: The netsphere assay was conducted in a semi-field containment area. The containment area was 1,000 square feet in size and environmental cues such as temperature, humidity, lighting and airflow were controlled to replicate conditions that Aedes aegypti mosquitoes would encounter in the wild. The containment area was conditioned for 2 hours prior to experimentation to allow for equalization of environmental conditions. Fifty female and five male mosquitoes were then released into the chamber and given one hour to acclimate to the environment. Following this, a BG-Sentinel trap (Biogents AG, Regensburg, Germany) was baited with either cyclopentanone, 2-pentanone or 2,4-lutidine and placed in the chamber in the presence of a non-baited BG-Sentinel (as a negative control for trap attraction). The collection was allowed to proceed overnight during which lighting conditions in the chamber were set to mimic those of starlight. The following day, mosquitoes caught in the trap were frozen at −20° C. and counted. These counts were compared to control experiments where CO2 from a tank, at a flow rate of 250 ml/min, was used as bait.

[5] = tested on: female mosquitoes; assay: whole plant or invertebrate; conditions: 2 h; for mortality at 200 µg/mL: read-out: % mortality with 0.2 mg/ml; for mortality at 2000 µg/mL: read-out: % mortality with 2 mg/ml
[6] = tested on: larvae; assay: larvicidal activity assay; type: in vivo; conditions: for pest or weed control at 0.25 %: read-out: % Lethality with 0.25% compound conc.; for pest or weed control at 100 ppm: read-out: % Lethality at 100 ppm
Description: A 6-well plate (Corning Life Sciences, Tewksbury, Mass.) is used to test a compound's larvicidal activity. […] After a 24 hour exposure, the number of dead larvae are counted and recorded.
The results are presented in Table 17 as % lethality (the number of dead larvae divided by the total number of larvae).

[7] = tested on: bed bugs (Cimex lectularius); assay: bed bug repellency assay; type: in vivo; conditions: compound or combination on filter paper harborage, ten bed bugs
Method in brief: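 Ten Cimex lectularius per talc-lined petri dish chose between folded filter-paper harborages treated with isopropyl alcohol alone or compound in isopropyl alcohol […], dried before use. Bugs moved freely 5 min; occupancy beneath each tent recorded, with a solvent-only pairing as control.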

[8] = tested on: female mosquitoes; conditions: in vivo
[9] = tested on: cpB and cpC neurons; assay: extracellular single-sensillum electrophysiology: beta activators; type: in vivo, Aedes aegypti; conditions: for Class A (beta activator, individual component): Table 15, single component alone, Beta Actv; for beta activator (stimulates cpB and cpC neuronal activity): single compound
Description: Three types of CO2-responsive neurons reside in the maxillary palp of mosquitoes. These include cpA, cpB and cpC neurons. […] These neurons produce spikes with much lower amplitude than those produced by cpA neurons. Although the activity from cpB and cpC neurons cannot easily be distinguished from one another, their collective activity can be distinguished from cpA neurons due to their characteristic spikes. This is useful in the identification of compounds and compositions that only activate or inhibit cpB and cpC neurons or compounds and compositions that activate or inhibit both.
Carbon dioxide receptor neurons are housed within the basiconic sensilla of the mosquito maxillary palp. While activity from cpA neurons produces the largest amplitude spike, cpB and cpC neurons present in this region are also responsive to skin odors. Activity from these neurons can also be detected through the electrophysiological methods described in Example 1.
Although the activity from cpB and cpC neurons cannot easily be distinguished from one another, their collective activity can be distinguished from cpA neurons due to their production of spikes with much lower amplitude than those produced by cpA neurons.

[10] = 0.25% compound, 24 hour exposure, dead larvae / total larvae
[11] = 100 ppm compound, 24 hour exposure, dead larvae / total larvae

| SMILES | % Att (bed bug attractancy) [1] [%] | number of landings [2] [landings] | behaviour in landing assay (lure or repellent) [2] | Class [3] | behaviour in netsphere assay (attractant or repellent) [4] | mortality at 200 µg/mL [5] [%] | mortality at 2000 µg/mL [5] [%] | pest or weed control at 0.25 % [6, 10] [%] | pest or weed control at 100 ppm [6, 11] [%] | % Rep (bed bug repellency) [7] [%] | activator class of single compound [3] | Comp B Class [3] | Class B (activator class of the individual component) [3] | Class A (beta activator, individual component) [9] | beta activator (stimulates cpB and cpC neuronal activity) [9] | other results |
| --- | --- | --- | --- | --- | --- | --- | --- | --- | --- | --- | --- | --- | --- | --- | --- | --- |
| O=C1CCCC1 [OLI0008, cyclopentanone] | 50 | 39 | act as lures | Strong Activator (strong activators yield an increase in activity that is >60 spk/sec over baseline neuronal activity) | act as attractants; also recorded: attract mosquitoes | 0 | 0 | 85 | 0 | – | – | – | – | – | – | – |
| Cc1ccnc(C)c1 [OLI0001, 2,4-lutidine] | – | – | – | Strong Activator (strong activators yield an increase in activity that is >60 spk/sec over baseline neuronal activity) | acted as a repellent | 0 | 0 | 100 | 0 | 39 | strong activator (spike rate of 60-100 spk/sec over the baseline activity of the neuron) | – | – | – | – | effect on CO2-receptor activity (FIG. 1) ([3]; 1% concentration in paraffin oil): activator |
| C/C=C/C(=O)OC [OLI0026, methyl crotonate] | 20 | – | – | Moderate Activator (Moderate activators yield an increase in neuronal activity that is between 40 and 60 spk/sec over baseline neuronal activity) | – | 0 | 0 | 87.5 | 0 | 38 | – | Mod | Mod | – | – | – |
| CCCC(C)=O [OLI0018, 2-pentanone] | 30 | 37 | act as lures | Moderate Activator (Moderate activators yield an increase in neuronal activity that is between 40 and 60 spk/sec over baseline neuronal activity) | act as attractants; also recorded: attract mosquitoes | 0 | 0 | – | – | – | – | Mod | Mod | – | – | Comp A Class [3]: Mod; pest or weed control at 100 ppm ([6]; 24 h): 0%; pest or weed control at 0.25 % ([6]; 24 h): 0% |
| CSC(C)=O [OLI0025, methanethiol acetate] | 20 | – | – | Moderate Activator (Moderate activators yield an increase in neuronal activity that is between 40 and 60 spk/sec over baseline neuronal activity) | – | – | – | – | – | – | – | Mod | Mod | – | – | % mortality with 0.2 mg/ml [8]: 0%; % mortality with 2 mg/ml [8]: 0%; % Lethality with 0.25% compound conc. [6, 10]: 100% lethal; % Lethality at 100 ppm [6, 11]: 0% lethal |
| CCC(=O)OCCC(C)C [OLI0099, isoamyl propionate] | 10 | – | – | – | – | 0 | 0 | 0 | 0 | 17 | – | – | – | Beta | beta activators | – |
| COC(=O)CCC(C)=O [OLI0027, methyl levulinate] | 10 | – | – | Moderate Activator (Moderate activators yield an increase in neuronal activity that is between 40 and 60 spk/sec over baseline neuronal activity) | – | 0 | 0 | 50 | 0 | 20 | moderate cpA activator | – | – | Beta | beta activators | Comp A Class [3]: Mod |
| CCc1cnccn1 [OLI0002, 2-ethylpyrazine] | – | 12 | repellent | Strong Activator (strong activators yield an increase in activity that is >60 spk/sec over baseline neuronal activity) | – | 0 | 0 | 50 | 0 | 49 | activator | – | – | – | – | – |
| CCCCCCOC=O [OLI0097, hexyl formate] | 30 | – | – | – | – | 0 | 0 | – | – | 44 | – | – | – | Beta | beta activators | pest or weed control at 100 ppm ([6]; 24 h): 0%; pest or weed control at 0.25 % ([6]; 24 h): 5% |

Source: patent US20150216182A1, “COMPOSITIONS AND METHODS OF THE ATTRACTION AND REPULSION OF INSECTS” (Olfactor Laboratories, Inc., priority 2012, published 2015)
